Several values for one entry are separate records, joined by “and”; a condition that tells them apart may be missing. Equal values may be shown once.
Tests used:
[1] = test system: TNF-α, TGF-β1, bFGF, PDGF, and EGF; conditions: literature report; cited from earlier work
[2] = test system: ischemia-reperfusion rat model; conditions: in vivo
Description: After baseline echocardiography, thirty male Sprague-Dawley rats, ages 6-10 weeks, underwent myocardial infarction using an ischemia-reperfusion model. Briefly, rats were anesthetized using inhaled isoflurane (5% induction, 2.5% maintenance, O2 output 1 L/min) and positioned supine on an electrically warmed animal surgery platform. Rats were intubated using a 16-gauge i.v. catheter and then ventilated using a Harvard rodent respirator. After a left thoracotomy and pericardiotomy were performed, a 7-0 Ticron suture was introduced into the myocardium, using the left atrial appendage and right outflow tract as landmarks. The depth of entry was 2 mm, which was slightly greater than the level of the left coronary artery. Both suture ends were then threaded through a PE-90 polyethylene tube 6 in. in length to form a “snare loop” around the artery, closed by pulling on the free ends of the suture. […] The suture was then tightened to occlude the artery for 20 minutes and then removed to allow for reperfusion. The chest was then closed with 5-0 prolene suture, and the animal was allowed to recover. After one week and repeat echocardiography, rats were randomized to placebo rodent feed (control group, n=15) or rodent feed mixed with 1.2% pirfenidone (PFD) (treatment group, n=15) for four weeks. All experiments and data analyses were performed with the operator blinded to treatment group. […]

[3] = test system: ischemia-reperfusion rat model; assay: Serial echocardiography in ischemia-reperfusion MI rats; format: in vivo, Sprague-Dawley rats; conditions: for LV ejection fraction at 5 weeks: 5 weeks post-MI, after four weeks feed with 1.2% pirfenidone
Description: In this example, a protocol is described for examining the ventricular function, extent of fibrosis and VT inducibility in an ischemia-reperfusion rat model after pirfenidone treatment. Ventricular function was assessed via echocardiography. VT inducibility was assessed by programmed stimulation and EP study. The electrophysiological properties were assessed using high-resolution optical mapping, and the extent of fibrosis was studied using standard histological techniques.
After baseline echocardiography, thirty male Sprague-Dawley rats, ages 6-10 weeks, underwent myocardial infarction using an ischemia-reperfusion model. Briefly, rats were anesthetized using inhaled isoflurane (5% induction, 2.5% maintenance, O2 output 1 L/min) and positioned supine on an electrically warmed animal surgery platform. Rats were intubated using a 16-gauge i.v. catheter and then ventilated using a Harvard rodent respirator. After a left thoracotomy and pericardiotomy were performed, a 7-0 Ticron suture was introduced into the myocardium, using the left atrial appendage and right outflow tract as landmarks. The depth of entry was 2 mm, which was slightly greater than the level of the left coronary artery. Both suture ends were then threaded through a PE-90 polyethylene tube 6 in. in length to form a “snare loop” around the artery, closed by pulling on the free ends of the suture. […] The suture was then tightened to occlude the artery for 20 minutes and then removed to allow for reperfusion. The chest was then closed with 5-0 prolene suture, and the animal was allowed to recover. After one week and repeat echocardiography, rats were randomized to placebo rodent feed (control group, n=15) or rodent feed mixed with 1.2% pirfenidone (PFD) (treatment group, n=15) for four weeks. All experiments and data analyses were performed with the operator blinded to treatment group.
At baseline, and at 1 wk and 5 wk after infarction, a commercially available high-resolution echocardiographic system (Vevo 660, VisualSonics, Toronto, ON, Canada) equipped with a 25-MHz mechanical transducer was used for echocardiography. Rats were placed supine on a warming platform, and ECG limb electrodes were attached. To minimize ultrasound attenuation, the chests were shaved and cleaned with a chemical hair remover (Nair). Aquasonic 100 gel (Parker Laboratories, Fairfield, N.J.) was applied to the thoracic surface to optimize visibility of the cardiac chambers. Parasternal long-axis and parasternal short-axis two-dimensional views were acquired.
Using the long-axis view, left ventricular (LV) end-systolic and end-diastolic volumes (ESV and EDV), as well as LV ejection fraction (LVEF), were calculated by using frames with the maximal and minimal cross-sectional area and width. The system software utilizes a formula based on a cylindrical-hemiellipsoid model (volume=8*area2÷3÷length). LVEF was calculated using the following formula: (EDV−ESV)/EDV*100. Fractional shortening (FS) was evaluated from the M mode of the parasternal long-axis view at the papillary muscle level on the basis of the percent changes of LV end-diastolic and end-systolic diameters. LV mass was estimated using the following equation at end diastole: LV mass=1.05*(epicardial volume−endocardial volume), where volume is based on the cylindrical-hemiellipsoid model. These evaluations of LV function in the rodent are well validated. Echocardiographic acquisition and analysis were obtained while blinded to the treatment group.

Q: With `Cc1ccc(=O)n(-c2ccccc2)c1` [pirfenidone] as the molecule, how does the “biosynthesis or release of various cytokines such as TNF-α, TGF-β1, bFGF, PDGF, and EGF” value [1] read?
A: inhibit excessive biosynthesis or release

Q: What about the collagen expression [1] of the same molecule?
A: decrease collagen expression

Q: And the “mortality, CHF, or arrhythmias in treated animals” value [2]?
A: No increased mortality, CHF, or arrhythmias

Q: And the “LV ejection fraction at 1 week” value ([3]; 1 week post-MI, at randomization before treatment)?
A: 54%

Q: What about the “LV ejection fraction at 5 weeks” value [3] of the same molecule?
A: 45%

Q: What about the “LV ejection fraction at 5 weeks” value ([3]; listed as PFD) of the same molecule?
A: 36±15%

Q: And the “LV ejection fraction, starting value of the decline” value ([3]; baseline echocardiography, before treatment)?
A: 66±5%

Q: What about the “percent decrease in ejection fraction from week 1 to week 5” value ([3]; treatment period, feed with 1.2% pirfenidone, controls 24.3%, p=0.005) of the same molecule?
A: 8.6% and 8%
